Experimental data: patent publication US11649236B2, “Polycyclic carbamoylpyridone derivative” (Shionogi & Co., Ltd., priority 2018, dated 2023)

Assays:
HIV = experiment: Anti-HIV activity (MT-4 cells, MTT); format: cell-based; details: Human immunodeficiency virus 1, MT4, 96 h, cultured 4 days
Experimental: Serial dilutions of a test sample were prepared in a 96-well microplate (50 μL/well). 2.5×10^5 cells/mL of a MT-4 cell suspension was dispensed at 100 μL/well to the plate containing the test sample. Then, an HIV virus solution was dispensed at 50 μL/well. The plate was mixed with a plate mixer and cultured for 4 days in a CO2 incubator. An MTT (3-(4,5-dimethylthiazol-2-yl)-2,5-diphenyltetrazolium bromide) solution was dispensed at 30 μL/well. The plate was reacted for 1 hour in a CO2 incubator. 150 μL of the supernatant was removed from each well so as not to take up the cells. 150 μL of a cell lysis solution was added to each well and well mixed with a plate mixer until the cells were completely lysed. The absorbance of the mixed plate was measured at two wavelengths of 560 nm and 690 nm with a microplate reader.

[1] = tested on: HIV mutant strain 2 (E92Q/E138T/G140S/Q148H); experiment: Resistance evaluation test (HeLa-CD4 reporter), mutant strain 2; format: cell-based; details: FC=EC50 of mutant strain/EC50 of wild strain, HeLa-CD4 cells
Experimental: (§1) Serial dilutions of a test sample were prepared in a96-well microplate (50 μL/well). 2.5×10^5 cells/mL of a HeLa-CD4 cell suspension was dispensed at 100 μL/well to the plate containing the test sample. Then, an HIV virus solution (wild strain and mutant strain) was dispensed at 50 μL/well. The plate was mixed with a plate mixer and cultured for 3 days in a CO2 incubator. The culture supernatant in each well was removed by suction. A cell lysis buffer in a reporter assay kit was dispensed at 100 μL/well, and the plate was frozen in a freezer (−80° C.). The plate frozen in a freezer was thawed at room temperature, then mixed with a plate mixer, and centrifuged at 1,200 rpm for 5 minutes. The supernatant of each well was dispensed at 20 μL/well to a 96-well microplate (BLACK). A chemiluminescent reagent in the reporter assay kit was dispensed at 100 μL/well and reacted at room temperature for approximately 1 hour. Then, luminescence intensity was measured using MicroBeta TRILUX. […] FC=EC50 of mutant strain/EC50 of wild strain (Results) FC for the mutant strain 1 (E138K/G140S/Q148H/N155H) and FC for the mutant strain 2 (E92Q/E138T/G140S/Q148H) are shown in the table.

[2] = tested on: HIV mutant strain 1 (E138K/G140S/Q148H/N155H); experiment: Resistance evaluation test (HeLa-CD4 reporter), mutant strain 1; format: cell-based; details: FC=EC50 of mutant strain/EC50 of wild strain, HeLa-CD4 cells
Experimental: as §1

Metabolic stability test = format: in vitro ADME, human; design: key: % remaining vs amount at 0 min (=100%); details: compound 0.5 μmol/L, human liver microsomes 0.5 mg protein/mL, NADPH, 37° C., 30 minutes; amount at 0 minutes defined as 100%
Experimental: Commercially available pooled human liver microsomes were reacted with the compound of the present invention for a certain time. A residual rate was calculated by the comparison between the reacted sample and an unreacted sample to evaluate the degree at which the compound of the present invention is metabolized in the liver. A reaction was performed (oxidative reaction) at 37° C. for 0 minutes or 30 minutes in the presence of 1 mmol/L NADPH in 0.2 mL of a buffer (50 mmol/L Tris-HCl pH 7.4, 150 mmol/L potassium chloride, 10 mmol/L magnesium chloride) containing 0.5 mg protein/mL of human liver microsomes. After the reaction, 50 μL of the reaction solution was added to 100 μL of a solution of methanol/acetonitrile=1/1 (v/v) and mixed, and the mixture was centrifuged at 3000 rpm for 15 minutes. The compound of the present invention in the centrifugation supernatant was quantified by LC/MS/MS or solid-phase extraction (SPE)/MS. The amount of the compound of the present invention remaining after the reaction was calculated with the amount of the compound at 0 minutes of the reaction defined as 100%.

Row | SMILES | EC50 (HIV) [nM] | FC mutant strain 2 [1] | FC mutant strain 1 [2] | residual rate (Metabolic stability test)
1 | CCN1C(=O)c2c(O)c(=O)c(C(=O)NCc3ccc(F)cc3F)cn2N2CCCC[C@@]12C [Compound I-006] | 0.76 | 16 | 24 | 92.5
2 | CCN1C(=O)c2c(O)c(=O)c(C(=O)NCc3c(F)cc(F)cc3F)cn2N2CCCC[C@@H]12 [Compound I-011] | 2.2 | 10 | 13 | 88
3 | CC(C)N1C(=O)c2c(O)c(=O)c(C(=O)NCc3c(F)cc(F)cc3F)cn2N2C[C@@H]3CC[C@@H](O3)[C@@H]12 [II-005] | 0.62 | 7.4 | 3.1 | 80.2
4 | COC[C@@H]1CC[C@H]2N(C(C)C)C(=O)c3c(O)c(=O)c(C(=O)NCc4ccccc4F)cn3N12 [II-009] | 2.6 | 7.7 | 4.6 | 80.8
5 | CC(C)N1C(=O)c2c(O)c(=O)c(C(=O)NCc3ccccc3F)cn2N2C[C@@H]3CC[C@@H](O3)[C@@H]12 [II-013] | 0.4 | 6.4 | 5.6 | 87
6 | CCN1C(=O)c2c(O)c(=O)c(C(=O)NCc3c(F)cc(F)cc3F)cn2N2C[C@@H]3CC[C@@H](C3)[C@@H]12 [II-015] | 0.95 | 7.3 | 5.7 | 74.3
7 | CCN1C(=O)c2c(O)c(=O)c(C(=O)NCc3ccc(F)cc3F)cn2N2C[C@@H]3CCC[C@@H](C3)[C@@H]12 [II-018] | 2.9 | 8.7 | 6.1 | 77.6
8 | C[C@H]1CC[C@H]2N(C)C(=O)c3c(O)c(=O)c(C(=O)NCc4ccc(F)cc4F)cn3N2C1 [II-117] | 2 | – | – | –
9 | CCN1C(=O)c2c(O)c(=O)c(C(=O)NCc3ccc(F)cc3F)cn2N2C3CCC(CC3)[C@@H]12 [II-118] | 2.2 | – | – | –
10 | COC[C@@H]1CC[C@H]2N(C)C(=O)c3c(O)c(=O)c(C(=O)NCc4ccc(F)cc4F)cn3N12 [II-119] | 0.54 | – | – | –
11 | CN1C(=O)c2c(O)c(=O)c(C(=O)NCc3c(F)cc(F)cc3F)cn2N2Cc3ccccc3[C@@H]12 [II-120] | 0.22 | – | – | –
12 | C[C@H]1C[C@H]2N(C)C(=O)c3c(O)c(=O)c(C(=O)NCc4ccc(F)cc4F)cn3N2C1 [II-121] | 0.71 | – | – | –
13 | CN1C(=O)c2c(O)c(=O)c(C(=O)NCc3ccc(F)cc3F)cn2N2C[C@@H]3CC[C@@H](C3)[C@@H]12 [II-122] | 0.61 | – | – | –
14 | CCN1C(=O)c2c(O)c(=O)c(C(=O)NCc3ccc(F)cc3F)cn2N2C[C@H](C)C[C@@H]12 [II-123] | 1.6 | – | – | –
15 | CCN1C(=O)c2c(O)c(=O)c(C(=O)NCc3ccc(F)cc3F)cn2N2Cc3cc(Cl)ccc3[C@@H]12 [II-124] | 2.6 | – | – | –
16 | CCN1C(=O)c2c(O)c(=O)c(C(=O)NCc3ccc(F)cc3F)cn2N2CCN(C(=O)OC)C[C@@H]12 [II-125] | 1.3 | – | – | –
17 | CCN1C(=O)c2c(O)c(=O)c(C(=O)NCc3ccc(F)cc3F)cn2N2C[C@@H](OC)CC[C@@H]12 [II-126] | 0.45 | – | – | –
18 | CCN1C(=O)c2c(O)c(=O)c(C(=O)NCc3ccccc3OC(F)F)cn2N2CCCC[C@@H]12 [II-127] | 3.6 | – | – | –
19 | CCN1C(=O)c2c(O)c(=O)c(C(=O)NCc3ccc(F)cc3F)cn2N2Cc3cc(F)ccc3[C@@H]12 [II-128] | 0.72 | – | – | –
20 | CCN1C(=O)c2c(O)c(=O)c(C(=O)NCc3ccccc3OC)cn2N2CCCC[C@@H]12 [II-129] | 1.9 | – | – | –
21 | C[C@@H]1CCN2[C@@H](C1)N(C)C(=O)c1c(O)c(=O)c(C(=O)NCc3c(F)cc(F)cc3F)cn12 [II-130] | 0.13 | – | – | –
22 | CCN1C(=O)c2c(O)c(=O)c(C(=O)NCc3ccc(F)cc3F)cn2N2[C@H](C)CC[C@@]12C [II-131] | 0.49 | – | – | –

Row | SMILES | EC50 (HIV) [nM] | FC mutant strain 2 [1] | FC mutant strain 1 [2] | residual rate (Metabolic stability test)
23 | CCN1C(=O)c2c(O)c(=O)c(C(=O)NCc3ccc(F)cc3F)cn2N2CC[C@@H](C(F)(F)F)C[C@@H]12 [II-132] | 0.51 | – | – | –
24 | CCN1C(=O)c2c(O)c(=O)c(C(=O)NCc3cccc(Cl)c3)cn2N2CCCC[C@@H]12 [II-134] | 3 | – | – | –
25 | CCN1C(=O)c2c(O)c(=O)c(C(=O)NCc3nn(C)cc3Cl)cn2N2CCCC[C@@H]12 [II-135] | 18 | – | – | –
26 | CC[C@@H](NC(=O)c1cn2c(c(O)c1=O)C(=O)N(CC)[C@@H]1CCCCN12)c1ccc(F)cc1F [II-137] | 33 | – | – | –
27 | C[C@@H]1CC[C@H]2N(C)C(=O)c3c(O)c(=O)c(C(=O)NCc4ccc(Cl)cc4F)cn3N12 [II-138] | 2.1 | – | – | –
28 | CN1C(=O)c2c(O)c(=O)c(C(=O)NCc3c(F)cc(F)cc3F)cn2N2CC3(CC3)C[C@@H]12 [II-139] | 0.62 | – | – | –
29 | CCN1C(=O)c2c(O)c(=O)c(C(=O)NCc3ccc(Cl)cc3)cn2N2CCCC[C@@H]12 [II-140] | 3.6 | – | – | –
30 | CCN1C(=O)c2c(O)c(=O)c(C(=O)NCc3ncc(F)cc3F)cn2N2CCCC[C@@H]12 [II-141] | 0.65 | – | – | –
31 | CCN1C(=O)c2c(O)c(=O)c(C(=O)NCc3cc(F)cc(F)c3F)cn2N2CCCC[C@@H]12 [II-142] | 0.74 | – | – | –
32 | CCN1C(=O)c2c(O)c(=O)c(C(=O)NCc3ccc(F)cc3F)cn2N2CCN(c3ccccc3)C[C@@H]12 [II-143] | 3.2 | – | – | –
33 | CCN1C(=O)c2c(O)c(=O)c(C(=O)NCc3ccc(F)cc3F)cn2N2[C@@H]3COC[C@@H]3C[C@@H]12 [II-145] | 0.68 | – | – | –
34 | CCN1C(=O)c2c(O)c(=O)c(C(=O)NCc3ccc(F)cc3F)cn2N2CCN(c3ncccn3)C[C@@H]12 [II-146] | 1.6 | – | – | –
35 | O=C(NCc1ccc(F)cc1F)c1cn2c(c(O)c1=O)C(=O)N1CCCC[C@]13CCCCN23 [II-147] | 0.66 | – | – | –
36 | CCN1C(=O)c2c(O)c(=O)c(C(=O)NCc3c(F)cccc3Cl)cn2N2CCCC[C@@H]12 [II-148] | 0.5 | – | – | –
37 | CCN1C(=O)c2c(O)c(=O)c(C(=O)NCc3ccc(F)cc3F)cn2N2C[C@@]3(CCOC3)C[C@@H]12 [II-149] | 1.2 | – | – | –
38 | CCN1C(=O)c2c(O)c(=O)c(C(=O)NCc3ccc(F)cc3F)cn2N2[C@H](COC)CCC[C@@H]12 [II-150] | 0.55 | – | – | –
39 | CN1C(=O)c2c(O)c(=O)c(C(=O)NCc3cccc(Cl)c3F)cn2N2CC[C@H](C(F)(F)F)C[C@@H]12 [II-151] | 1.6 | – | – | –
40 | CN1C(=O)c2c(O)c(=O)c(C(=O)NCc3cccc(Cl)c3F)cn2N2C[C@@H]3CCC[C@@H](O3)[C@@H]12 [II-152] | 0.7 | – | – | –
41 | CCN1C(=O)c2c(O)c(=O)c(C(=O)NCc3ccc(F)cc3F)cn2N2Cc3ccc(F)cc3[C@@]12C [II-154] | 0.67 | – | – | –
42 | CCN1C(=O)c2c(O)c(=O)c(C(=O)NCc3ccc(F)cc3F)cn2N2[C@H](C)c3cc(F)ccc3[C@@H]12 [II-155] | 1.2 | – | – | –
43 | CN1C(=O)c2c(O)c(=O)c(C(=O)NCc3c(F)cc(F)cc3F)cn2N2C[C@H]3C[C@H](C3)[C@@H]12 [II-158] | 0.27 | – | – | –
44 | CCN1C(=O)c2c(O)c(=O)c(C(=O)NCc3ccc(F)cc3F)cn2N2CCCC[C@@]12CC [II-159] | 0.56 | – | – | –
